Data set [1] can be described thus: Inhibition of ROCK by enzyme-coupled luciferase-kinase assay.
The nature of data set [2]: Inhibition of PKA.
Data set [3] in a line: Selectivity ratio of IC50 for PKA to IC50 to ROCK.
The nature of data set [4]: Half life in human liver microsomes. Format: ADME, Microsome.
Data set [5] in a line: Clearance in rat at 2 mg/kg, po or 1 mg/kg, iv. The class given is ADME, organism-based. The conditions noted are these: in vivo.
A short description of data set [6]: Volume of distribution at steady state in rat at 2 mg/kg, po or 1 mg/kg, iv. Format: ADME, organism-based. Conditions: in vivo, read-out: Vdss.
A short description of data set [7]: Half life in rat at 2 mg/kg, po or 1 mg/kg, iv. The class given is ADME, organism-based. Conditions: in vivo.
In data set [8] the test system is Rattus norvegicus. Kind of data set: AUC in rat at 2 mg/kg, po. The class given is ADME, organism-based, Plasma. Further details: dose 2 mg/kg, route oral. The conditions noted are these: in vivo.
Data set [9] in a line: Cmax in rat at 2 mg/kg, po. Conditions: in vivo. Further details: dose 2 mg/kg, route oral. Format: ADME, organism-based.
Data set [10] is described as follows: Oral bioavailability in rat at 2 mg/kg. Format: ADME, organism-based. The conditions noted are these: in vivo.
Data set [11] can be described thus: Inhibition of ROCK by myosin light chain phosphorylation assay.

Results on two compounds are retold here after ChEMBL document CHEMBL1155401, “The development of benzimidazoles as selective rho kinase inhibitors” (Bioorg Med Chem Lett, 2010).

For `Nc1nccc(-c2ccc3nc(C4COc5ccc(C(=O)NCCc6cccnc6)cc5C4)[nH]c3c2)n1` (configuration not stated), the IC50 (usually the point on the concentration scale where inhibition reaches its midpoint) in data set [1] was determined as 0.25 nM; in data set [2], 442 nM; in data set [11], 250 nM. Further, in [3], the Ratio IC50 came to 1770. Moreover, the values for the half-life in data set [4] and in [7] were 0.025 h and 3.6 h, respectively. Moreover, in data set [5], the clearance was 58 mL/min/kg. In addition, the Vd in data set [6] is 5.9 L/kg. In [8], the area under the curve (AUC) (commonly the area under the concentration-time curve, a measure of exposure) worked out at 0.08 µM·h. Also, the Cmax (in general, the peak of the concentration-time curve) in [9] turned out to be 5 nM. Besides, the bioavailability – broadly, dose-corrected exposure relative to a reference, in per cent – in data set [10] was found to be 6%.
As for `CN(C)CCCNC(=O)c1ccc2c(c1)CC(c1nc3ccc(-c4ccnc(N)n4)cc3[nH]1)CO2` (configuration not stated), the IC50 in [1] came to 1.2 nM; in data set [2], 272 nM; in data set [11] it was 2700 nM. Besides, the Ratio IC50 in [3] was determined as 227. The half-life (in general, the time needed for the level to fall by half in the phase considered) in [4] is 1.67 h; in data set [7], 3 h. This compound also gave a clearance in [5] of 27 mL/min/kg. In addition, the Vd in data set [6] worked out at 4.6 L/kg. In data set [8], the AUC turned out to be 0.01 µM·h. Besides, in data set [9], the concentration peaked (Cmax) at 3 nM. For the same compound, the bioavailability in data set [10] is less than 1%.
